Laboratory results taken from patent US11541056B2, “3-hydroxy-N-(3-(7H-pyrrolo[2,3-d]pyrimidin-4-yl)phenyl)pyrrolidine-1-carboxamide derivatives” (NOVARTIS AG, priority 2018, dated 2023).

Legend:
BTK-GFP = biological target: T1, BTK-GFP (Homo sapiens, UniProt Q06187+Q96SW2); experiment: BTK-GFP protein abundance flow cytometry assay in HEK293A cells; format: cell-based; settings: 24 h
T1 construct: the BTK open reading frame (ORF) was first shuttled from a pcDNA-DEST40-BTK vector (Invitrogen library ID INV_20090504v1); expressed in transfected cells; host or cells: HEK293A cells (Invitrogen R70507), lentiviral transduction with pLenti6-BTK-GFP-Ires-RFP, blasticidin-selected
T1 sequence (Q06187 whole entry): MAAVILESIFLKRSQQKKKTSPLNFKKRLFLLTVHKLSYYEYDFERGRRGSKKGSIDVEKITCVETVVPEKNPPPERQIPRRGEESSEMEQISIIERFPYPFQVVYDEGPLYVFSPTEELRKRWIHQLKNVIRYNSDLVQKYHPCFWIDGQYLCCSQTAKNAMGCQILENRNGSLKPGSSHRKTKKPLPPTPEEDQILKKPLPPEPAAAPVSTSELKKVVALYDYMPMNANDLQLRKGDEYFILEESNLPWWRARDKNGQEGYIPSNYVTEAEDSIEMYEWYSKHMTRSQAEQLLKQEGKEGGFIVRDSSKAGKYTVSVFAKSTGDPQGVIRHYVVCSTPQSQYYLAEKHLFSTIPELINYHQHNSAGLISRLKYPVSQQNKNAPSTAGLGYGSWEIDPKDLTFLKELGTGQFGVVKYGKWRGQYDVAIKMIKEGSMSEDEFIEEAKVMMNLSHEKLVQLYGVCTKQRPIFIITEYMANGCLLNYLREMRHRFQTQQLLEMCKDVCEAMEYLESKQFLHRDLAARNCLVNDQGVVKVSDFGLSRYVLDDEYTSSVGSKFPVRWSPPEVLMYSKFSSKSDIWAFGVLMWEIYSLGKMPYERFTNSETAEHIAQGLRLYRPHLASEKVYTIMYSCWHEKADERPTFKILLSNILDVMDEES
T1 sequence (Q96SW2 whole entry): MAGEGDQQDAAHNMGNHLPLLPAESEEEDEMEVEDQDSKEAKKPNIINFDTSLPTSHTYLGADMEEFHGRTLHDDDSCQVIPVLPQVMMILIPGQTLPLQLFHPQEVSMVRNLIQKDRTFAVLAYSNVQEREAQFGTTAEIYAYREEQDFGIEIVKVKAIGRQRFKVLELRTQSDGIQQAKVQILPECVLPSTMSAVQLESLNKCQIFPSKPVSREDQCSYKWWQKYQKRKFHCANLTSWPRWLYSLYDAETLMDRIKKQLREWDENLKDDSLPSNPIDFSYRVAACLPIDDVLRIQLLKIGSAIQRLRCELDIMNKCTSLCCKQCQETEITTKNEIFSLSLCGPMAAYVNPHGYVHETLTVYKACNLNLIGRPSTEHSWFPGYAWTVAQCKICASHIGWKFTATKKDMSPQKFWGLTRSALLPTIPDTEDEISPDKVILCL
T1 sequence (Q16531 whole entry partner): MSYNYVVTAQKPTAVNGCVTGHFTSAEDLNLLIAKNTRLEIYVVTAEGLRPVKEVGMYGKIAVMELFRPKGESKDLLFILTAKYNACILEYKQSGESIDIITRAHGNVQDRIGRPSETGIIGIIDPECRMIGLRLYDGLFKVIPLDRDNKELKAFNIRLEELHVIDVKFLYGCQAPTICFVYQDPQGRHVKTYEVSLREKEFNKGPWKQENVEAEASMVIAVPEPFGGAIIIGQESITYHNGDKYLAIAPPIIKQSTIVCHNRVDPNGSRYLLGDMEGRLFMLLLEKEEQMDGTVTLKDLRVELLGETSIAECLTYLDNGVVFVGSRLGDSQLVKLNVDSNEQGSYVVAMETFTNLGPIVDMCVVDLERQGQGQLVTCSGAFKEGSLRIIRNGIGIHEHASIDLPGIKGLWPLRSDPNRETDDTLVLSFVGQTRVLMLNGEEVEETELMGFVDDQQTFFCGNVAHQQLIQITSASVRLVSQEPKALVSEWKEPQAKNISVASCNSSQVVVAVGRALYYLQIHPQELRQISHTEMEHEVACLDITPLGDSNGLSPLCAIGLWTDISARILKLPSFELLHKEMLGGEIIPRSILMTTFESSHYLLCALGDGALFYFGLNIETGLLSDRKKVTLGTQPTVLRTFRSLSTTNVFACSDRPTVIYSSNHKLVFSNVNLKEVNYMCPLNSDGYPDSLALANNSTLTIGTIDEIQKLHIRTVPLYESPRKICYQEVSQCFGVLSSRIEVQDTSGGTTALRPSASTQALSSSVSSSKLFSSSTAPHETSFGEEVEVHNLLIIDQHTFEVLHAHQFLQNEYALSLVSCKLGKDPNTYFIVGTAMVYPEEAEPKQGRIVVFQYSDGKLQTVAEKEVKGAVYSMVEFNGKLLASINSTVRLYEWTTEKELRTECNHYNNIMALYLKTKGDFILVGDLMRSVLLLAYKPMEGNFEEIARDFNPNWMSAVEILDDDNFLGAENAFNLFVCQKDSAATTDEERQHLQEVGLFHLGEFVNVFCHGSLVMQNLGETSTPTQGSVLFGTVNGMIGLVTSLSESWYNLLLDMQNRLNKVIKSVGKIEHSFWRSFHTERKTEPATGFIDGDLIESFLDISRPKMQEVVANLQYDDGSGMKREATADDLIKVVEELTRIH
Outline: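 HEK293A cells stably expressing BTK-GFP-iresRFP treated 24 h at 37° C with 10-point 1:3 dilutions from 10 μM (0.1% DMSO), in duplicate. Median GFP of 5,000 single cells by flow cytometry, normalized to GFP-negative iresRFP cells (0%) and DMSO (100%); DC50 from concentration-response curves.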

IKZF3-GFP = biological target: T2, IKZF3-GFP (Homo sapiens, UniProt Q9UKT9); experiment: IKZF3-GFP protein abundance flow cytometry assay in HEK293A cells; format: cell-based; settings: 24 h, Table 1
T2 construct: gateway cloning of IKZF3 from a pENTR221-IKZF3(STOP-Leu) construct into the previously described pLenti6-DEST-GFP-Ires-RFP vector; expressed in transfected cells; host or cells: HEK293A cells (Invitrogen R70507), lentiviral transduction with pLenti6-IKZF3-GFP-Ires-RFP, blasticidin-selected
T2 sequence (Q96SW2 whole entry partner): as the sequence (Q96SW2 whole entry) above
T2 sequence (Q16531 whole entry partner): as the sequence (Q16531 whole entry partner) above
T2 sequence (Q9UKT9 whole entry): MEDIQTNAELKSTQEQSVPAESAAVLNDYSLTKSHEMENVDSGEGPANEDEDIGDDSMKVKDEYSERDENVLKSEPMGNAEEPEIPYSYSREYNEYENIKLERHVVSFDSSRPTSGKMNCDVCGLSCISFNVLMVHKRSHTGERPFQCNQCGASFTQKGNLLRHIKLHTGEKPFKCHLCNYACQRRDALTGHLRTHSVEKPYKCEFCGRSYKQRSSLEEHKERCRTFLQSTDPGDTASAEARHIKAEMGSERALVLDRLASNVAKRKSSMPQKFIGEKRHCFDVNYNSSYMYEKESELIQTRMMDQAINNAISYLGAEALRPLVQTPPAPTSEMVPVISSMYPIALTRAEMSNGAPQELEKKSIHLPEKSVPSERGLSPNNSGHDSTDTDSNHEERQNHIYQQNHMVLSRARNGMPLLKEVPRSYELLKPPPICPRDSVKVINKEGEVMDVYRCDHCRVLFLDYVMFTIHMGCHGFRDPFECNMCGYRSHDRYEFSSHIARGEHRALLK
Procedure: Compounds of the invention were tested in the following cellular assays. […] TMD8 cells are BTK dependent and OCI-LY3 cells are BTK independent.
BTK-GFP and IKZF3-GFP Protein Abundance Flow Cytometry Assay in HEK293A Cells:
Degradation of BTK or IKZF3 was measured in HEK293A cells (Invitrogen R70507) expressing either BTK-GFP and RFP or IKZF3-GFP and RFP from a stably integrated bicistronic BTK-GFP-iresRFP or IKZF3-GFP-iresRFP construct, respectively. Reduction of the GFP signal measured by flow cytometry served as readout for BTK or IKZF3 degradation after degrader treatment.
Stable HEK293A-BTK-GFP-iresRFP cells were maintained in complete growth medium (DMEM high Glucose+10% FCS+1% L-Glutamine+1% NEAA+1% NaPyr.) with passaging performed twice per week. On Day 0, HEK293A-BTK-GFP-iresRFP or HEK293A-IKZF3-GFP-iresRFP and HEK293A-iresRFP cells were seeded at 10,000 cells/well in a 96-well microtiter plate in 260 μl complete medium. On Day 1, cells were treated in duplicate with 10-point 1:3 dilution series of compound using the HP D300 Digital Dispenser (Tecan). DMSO concentrations were normalized across the plate to 0.1%. On Day 2, after 24 h of incubation at 37° C., treatment media was discarded, cells rinsed with 100 ul/well PBS and then detached using 40 ul trypsin/well for 5 min. Trypsin was neutralized with 100 ul/well PBS+20% FCS). Flow cytometry was performed on the samples using the BD FACS CANTO II (Becton Dickinson). Cell identification was then performed using forward (FSC) vs. side scatter (SSC) plots. Single cell discrimination is performed using SSC-Width (SSC-W) vs. SSC-Height (SSC-H) plots. Median GFP values for 5,000 single cells are used to determine BTK levels. Median GFP values from HEK293A-iresRFP are used as a background signal and thus defining 0% BTK signal. Median GFP values from DMSO treated HEK293A-BTK-GFP-iresRFP or HEK293A-IKZF3-GFP-iresRFP are used to define 100% BTK signal for subsequent DC50 curves (concentration at 50% BTK degradation). GFP and RFP are read in the channels called FITC and PE, respectively.
Concentration response curves plotting relative reduction of the GFP signal (measured by flow cytometry) versus 10 compound concentrations (starting concentration 10 μM, 3 fold dilution steps) of the compounds allowed generation of DC50 values.
Data is shown in Table 2, in which, DC50 refers to the concentration at which 50% maximal degradation was observed; deg Amax is the extent of degradation and the value refers to the % protein remaining at the concentration at which maximum degradation is seen.

- BTK deg Amax % (BTK-GFP; % protein remaining at concentration of maximum degradation): 1.4%
- DC50 (BTK-GFP; concentration at which 50% maximal degradation was observed): 1.4 nM
- IKZF3 deg Amax % (IKZF3-GFP; % protein remaining at maximum degradation): 100.2%
- DC50 (IKZF3-GFP): > 1100 nM
SMILES: COc1ccc(C(=O)N2CCC(CCN3CCC(OCc4ccc(-c5cc6c(-c7cc(F)cc(NC(=O)N8C[C@H](CC(C)C)[C@@H](O)C8)c7C)ncnc6[nH]5)cc4)CC3)CC2)cc1N1CCC(=O)NC1=O [Compound 22, (3R,4S)—N-(3-(6-(4-(((1-(2-(1-(3-(2,4-Dioxotetrahydropyrimidin-1 (2H)-yl)-4-methoxybenzoyl)piperidin-4-yl)ethyl)piperidin-4-yl)oxy)methyl)phenyl)-7H-pyrrolo[2,3-d]pyrimidin-4-yl)-5-fluoro-2-methylphenyl)-3-hydroxy-4-isobutylpyrrolidine-1-carboxamide]
